Assay results reported in publication PMC8391421, “Identification of Novel Positive Allosteric Modulators of Neurotrophin Receptors for the Treatment of Cognitive Dysfunction” (Cells, 2021).
One block for each molecule: values may come before it.

Legend:
[1] = molecular target: T1, TrkB (Homo sapiens, UniProt Q16620); experiment: TrkB PathHunter cell-based assay (U2OS-TrkB/p75)
T1 construct: host or cells: U2OS (human osteosarcoma), co-expressing p75 and SHC-1 fused to the enzyme acceptor
Procedure: U2OS cells were maintained subconfluent in EMEM supplemented with 10% FBS and penicillin/streptomycin/hygromycin and G418. One day prior to the experiment, 5000 cells of EMEM supplemented with 0.5% horse serum were seeded in each well of a 384-well white plate. The assay was performed as previously described. Briefly, the TrkA or TrkB cell-based PathHunter® assays use enzyme fragment complementation (EFC) technology for the complementation of two β-galactosidase (β-gal) fragments in order to study protein–protein interactions. Upon activation with ligand, TrkA or TrkB are phosphorylated on several tyrosine residues, including tyrosine 490, leading to an interaction with SHC-1. In the PathHunter® assays, the Trk-receptors are fused to an enzyme donor tag, and SHC-1 is fused to a larger part of β-gal called an enzyme acceptor. The interactions between the recombinant enzyme donor, i.e., the Trk-receptor, with an enzyme acceptor, i.e., SHC-1, leads to an active β-gal enzyme. The functional (complemented) β-gal will hydrolyze a substrate to generate a luminescence signal. The generated luminescence was read using an EnVision plate reader from PerkinElmer, Upplands Väsby, Sweden, or an ID5 plate reader from Molecular Devices, Berkshire, RG41 5TS UK. […] Min- and Max-control wells were included on each plate. A compound was considered a hit if the percent activation was more than 50% and if the value was two standard deviations higher than the mean value of all of the samples on the plate. The average activation of all of samples on 10 different 384-well plates was 31%. […] Due to the risk of adverse events with the systemic administration of TrkA agonists, the screen and the re-screen processes were designed to increase the likelihood of identifying the positive modulators of NGF-signaling rather than identifying TrkA agonists. Based on the results of the re-screen, in combination with the physical–chemical properties of the molecules, a collection of hits was used for the EC50 determinations.
Both Toltrazuril and Ponazuril are registered veterinary products prescribed for parasitic infections in animals. […] The cellular response to NGF or BDNF was measured using PathHunter® assays employing β-gal enzyme fragment complementation technology. The activation of Trk-receptors leads to an intracellular interaction between the Trk-receptor and SHC-1 and thereby to the complementation of β-gal, which will render in a functional enzyme. β-gal will hydrolyze a substrate to generate luminescence, which is proportional to the number of activated receptors. […]

[2] = molecular target: T2, TrkA (Homo sapiens, UniProt P04629); experiment: TrkA PathHunter cell-based assay (U2OS-TrkA/p75)
T2 construct: host or cells: U2OS (human osteosarcoma), co-expressing p75 and SHC-1 fused to the enzyme acceptor
T2 sequence (P04629 33-796): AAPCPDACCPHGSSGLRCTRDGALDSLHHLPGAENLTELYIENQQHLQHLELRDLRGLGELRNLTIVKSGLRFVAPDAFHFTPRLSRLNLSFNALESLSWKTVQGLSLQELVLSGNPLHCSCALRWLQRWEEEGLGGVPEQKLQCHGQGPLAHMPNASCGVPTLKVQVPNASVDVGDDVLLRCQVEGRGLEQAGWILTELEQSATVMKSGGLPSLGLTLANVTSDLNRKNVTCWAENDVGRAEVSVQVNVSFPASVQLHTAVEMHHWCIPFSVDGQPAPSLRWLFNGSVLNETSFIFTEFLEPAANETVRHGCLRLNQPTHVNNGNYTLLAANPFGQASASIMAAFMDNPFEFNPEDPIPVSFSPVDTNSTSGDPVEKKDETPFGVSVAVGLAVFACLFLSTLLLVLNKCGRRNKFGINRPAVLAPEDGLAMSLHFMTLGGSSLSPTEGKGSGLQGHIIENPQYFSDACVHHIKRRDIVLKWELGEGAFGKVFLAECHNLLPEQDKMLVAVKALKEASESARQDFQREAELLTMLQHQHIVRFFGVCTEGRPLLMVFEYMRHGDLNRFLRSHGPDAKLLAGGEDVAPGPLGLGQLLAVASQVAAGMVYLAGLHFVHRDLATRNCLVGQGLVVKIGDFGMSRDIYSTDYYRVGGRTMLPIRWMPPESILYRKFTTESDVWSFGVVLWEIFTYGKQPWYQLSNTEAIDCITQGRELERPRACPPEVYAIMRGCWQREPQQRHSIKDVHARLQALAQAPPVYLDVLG
Procedure: U2OS cells were maintained subconfluent in EMEM supplemented with 10% FBS and penicillin/streptomycin/hygromycin and G418. One day prior to the experiment, 5000 cells of EMEM supplemented with 0.5% horse serum were seeded in each well of a 384-well white plate. The assay was performed as previously described. Briefly, the TrkA or TrkB cell-based PathHunter® assays use enzyme fragment complementation (EFC) technology for the complementation of two β-galactosidase (β-gal) fragments in order to study protein–protein interactions. Upon activation with ligand, TrkA or TrkB are phosphorylated on several tyrosine residues, including tyrosine 490, leading to an interaction with SHC-1. In the PathHunter® assays, the Trk-receptors are fused to an enzyme donor tag, and SHC-1 is fused to a larger part of β-gal called an enzyme acceptor. The interactions between the recombinant enzyme donor, i.e., the Trk-receptor, with an enzyme acceptor, i.e., SHC-1, leads to an active β-gal enzyme. The functional (complemented) β-gal will hydrolyze a substrate to generate a luminescence signal. The generated luminescence was read using an EnVision plate reader from PerkinElmer, Upplands Väsby, Sweden, or an ID5 plate reader from Molecular Devices, Berkshire, RG41 5TS UK. […] Min- and Max-control wells were included on each plate.
Both Toltrazuril and Ponazuril are registered veterinary products prescribed for parasitic infections in animals. […] The activation of Trk-receptors leads to an intracellular interaction between the Trk-receptor and SHC-1 and thereby to the complementation of β-gal, which will render in a functional enzyme. β-gal will hydrolyze a substrate to generate luminescence, which is proportional to the number of activated receptors.

[3] = system: Wistar rats; experiment: Novel object recognition; format: in vivo, rat; conditions: 1 mg/kg
Procedure: The novel object recognition model was conducted by Suven Life Sciences Ltd. (Hyderabad, India) using male Wistar rats (n = 12/group). This study was performed in compliance with the requirements and in-house animal care and usage policy of the Institutional Animal Ethics Committee (IAEC). The experiment was conducted over a 5-day period. For the first 3 days, ACD855 or vehicle were administered to the animals. On Day 4, the rats were acclimatized to their respective arenas for 20 min and then returned to their home cages for the administration of ACD855 or vehicle (1 h post habituation phase). On Day 5, the rats were administered vehicle or ACD855 1 h prior to trial, donepezil (1 mg/kg) was injected 30 min prior to trial, and scopolamine (1 mg/kg) was injected 20 min prior to trial. 20 min after scopolamine administration, the rats were subjected to the familiarization phase. The experiment was performed as described by Lueptow. The discriminative index for the drug-treated groups was compared to that of the vehicle group by use of the Kruskal–Wallis test. The discriminative index is the ratio of time spent exploring the novel object divided by the sum of the time spent exploring the novel object and a familiar object in the choice trial.

[4] = system: C57BL/6J mice; experiment: Passive avoidance task; format: in vivo, mouse; conditions: low doses given by themselves; physostigmine 0.025 mg/kg
Procedure: The passive avoidance (PA) task is an associate learning paradigm that is based on Pavlovian fear-conditioning and instrumental conditioning and conducted as previously described in male C57BL/6J mice (n = 7–8/group) from Charles River Laboratories, Sulzfeld, Germany. Vehicle or ACD855 (1, 3 or 10 mg/kg), formulated in 20% DMSO in 0.1 M sodium phosphate buffer pH 8.0, was administered daily (Days 1–4) through s.c. injections (4 mL/kg body weight). ACD856 (0.1, 0.3, 1 or 3 mg/kg) was administered by a single s.c. dose on the training day (Day 4). ACD855, ACD856, ANA-12 (0.5 mg/kg, from Sigma Aldrich, Stockholm, Sweden), physostigmine (0.025 mg/kg, from Sigma Aldrich, Stockholm, Sweden), or vehicle was administered 60 min prior to training, except for when addressing the effects on consolidation, in which case, ACD856 was dosed 5 min after the training session on day 4. Moreover, on the training day (Day 4), scopolamine or the NMDA-antagonist MK-801 (both from Sigma Aldrich, Stockholm, Sweden) at 0.3 mg/kg or vehicle was administered once s.c. 30 min prior to training. No compound was administered on the test day (Day 5), except for when addressing effects on retrieval, in which case, ACD856 was dosed 30 min prior to testing on day 5. Retention latencies and time spent in the bright compartment were determined 24 h after training (Day 5).

[5] = system: Shaffer collaterals-CA1 pathway, hippocampal slices; experiment: Facilitation of long-term potentiation in rat hippocampal slices; conditions: 50 ng/mL; n = 9 slices from 7 rats
Procedure: Male Sprague Dawley rats (4–5 weeks old) from Charles River Laboratories, Sulzfeld, Germany, were used in these experiments. Rats were deeply anesthetized using isoflurane and decapitated soon after the disappearance of the corneal reflexes. The brains were removed and placed in ice-cold standard artificial CSF (aCSF) solution (124 mM NaCl, 30 mM NaHCO3, 10 mM glucose, 1.25 mM NaH2PO4, 3.5 mM KCl, 1 mM MgCl2, 2 mM CaCl2). Hippocampal horizontal sections (400 µm thick) were prepared using a Leica VT1200S vibratome (Leica Microsystems, Kista, Sweden). Immediately after slicing, sections were transferred into an interface incubation chamber filled with standard aCSF. The chamber was held at 34 °C during the slicing period and was subsequently allowed to cool down to room temperature. […] The facilitation of long-term potentiation (LTP) was monitored in the Shaffer collaterals (SC)-CA1 pathway in the hippocampus. […] Data were normalized with respect to the mean fEPSP slope recorded during the last 10 min of the baseline period.
It has been well-described that the transient, short-term plasticity of synaptic strength induced by a weak stimulation in hippocampal slices can turn into long-term potentiation (LTP) through the exogenous application of BDNF [71, 72, 73]. […] In the control slices, the recorded potentiation decreased to the baseline level after 60 min. […]

T1 sequence (Q16620 32-822): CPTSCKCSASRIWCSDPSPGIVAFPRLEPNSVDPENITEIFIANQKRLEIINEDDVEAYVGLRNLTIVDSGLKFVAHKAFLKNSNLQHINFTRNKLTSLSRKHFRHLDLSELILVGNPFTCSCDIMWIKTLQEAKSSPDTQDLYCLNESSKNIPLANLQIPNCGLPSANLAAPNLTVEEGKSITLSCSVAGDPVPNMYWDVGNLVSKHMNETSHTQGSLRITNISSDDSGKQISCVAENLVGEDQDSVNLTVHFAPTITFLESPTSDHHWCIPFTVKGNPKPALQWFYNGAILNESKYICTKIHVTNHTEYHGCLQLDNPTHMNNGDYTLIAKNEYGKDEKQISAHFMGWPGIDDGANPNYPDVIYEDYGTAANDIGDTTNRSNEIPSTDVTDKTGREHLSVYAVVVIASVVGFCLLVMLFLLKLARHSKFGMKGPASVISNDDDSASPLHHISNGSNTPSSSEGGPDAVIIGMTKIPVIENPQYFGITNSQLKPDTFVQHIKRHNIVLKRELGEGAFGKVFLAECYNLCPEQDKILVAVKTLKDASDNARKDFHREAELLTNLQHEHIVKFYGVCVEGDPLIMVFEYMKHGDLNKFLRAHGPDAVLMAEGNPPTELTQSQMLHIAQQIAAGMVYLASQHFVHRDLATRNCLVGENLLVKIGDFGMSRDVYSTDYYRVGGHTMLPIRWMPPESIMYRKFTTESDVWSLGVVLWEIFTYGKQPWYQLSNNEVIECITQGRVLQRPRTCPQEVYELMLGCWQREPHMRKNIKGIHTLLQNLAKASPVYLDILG

- activity in the TrkB assay [1]: not active
- activity in the TrkA assay [2]: not active
Molecule: N#CC(c1ccc(Cl)cc1)c1c(Cl)cc(-n2ncc(=O)[nH]c2=O)cc1Cl (centres unmarked) [Diclazuril]

Molecule: COc1cc2c(cc1OC)C(=O)C(CC1CCN(Cc3ccccc3)CC1)C2 (centres unmarked) [Donepezil]
- time with novel object vs familiar object after scopolamine [3]: spent significantly more time with the novel object

Molecule: CNC(=O)Oc1ccc2c(c1)[C@]1(C)CCN(C)[C@@H]1N2C [physostigmine]
- effect of low dose alone on scopolamine-induced memory impairment [4]: no significant effect

B1: BDNF: recombinant human brain-derived neurotrophic factor (protein, UniProt P23560 19-247, looked up)
Neurotrophic factor BDNF …: APMKEANIRGQGGLAYPGVRTHGTLESVNGPKAGSRGLTSLADTFEHVIEELLDEDQKVRPNEENNKDADLYTSRVMLSSQVPLEPPLLFLLEEYKNYLDAANMSMRVRRHSDPARRGELSVCDSISEWVTAADKKTAVDMSGGTVTVLEKVPVSKGQLKQYFYETKCNPMGYTKEGCRGIDKRHWNSQCRTTQSYVRALTMDSKKRIGWRFIRIDTSCVCTLTIKRGR
- long-lasting potentiation of evoked synaptic responses (fEPSP slope), fold increase [5]: 1.22 ± 0.04 fold
